Where “and” joins values, the source holds several entries; their conditions need not be identical. Identical values can stand only once. Entries after “also recorded” stand apart in the source; their conditions may differ. Like-named read-outs stand apart in the source and are kept apart here. Non-standard residues stand in square brackets, D forms with d. Residues, ends and D or L forms follow the SMILES beside them. Dolaproine = CO[C@@H]([C@@H]1CCCN1)[C@@H](C)C(=O)O; Dil = CC[C@H](C)[C@H](NC)[C@@H](CC(=O)O)OC; NMeV = CN[C@H](C(=O)O)C(C)C

The conditions of data set [1]: cited from earlier work.
The test system of data set [2] is melanoma and lung cancer models. The conditions noted are these: without radiotherapy; cited from earlier work. The source says: In the last decade, therapeutics targeting immune checkpoint inhibitors (i.e., CTLA-4, PD-1, and PD-L1) have revolutionized cancer care for subsets of oncology patients[24],[25]. There is tremendous interest in developing strategies to further improve immune checkpoint inhibitor responses to wider patient populations. To achieve increasing therapeutic precision, integrating the specificity of ADC with inherent targeting of radiotherapy and immunotherapy is appealing. […] U3-1402 is a HER3-targeted ADC with a topoisomer ...

Data set [3] has as its system MC38. Briefly: Cytotoxicity, Alamar Blue assay. The format is cell-based, murine. Here is the method:
(§1) Murine colorectal (MC38 (ENH204-FP)) cancer cell lines were obtained from Kerafast. Murine head and neck MOC1 and MOC2 were generously provided by Dr. R. Uppaluri. CAL27 PIK3CA H1047R expressing cells and 4MOSC1 cells were generated in Dr. Gutkind’s laboratory and previously characterized[42],[55]. […] MC38 cells were cultured in DMEM supplemented with 10% FBS, 1 mM sodium pyruvate (Gibco), 1% non-essential amino acids (Gibco), and 10 mM HEPES (Gibco). MOC1 and MOC2 cells were cultured in IMDM (Lonza)/F-12K nutrient mixture at a 2:1 mixture with 5% FBS, 5 ng/ml EGF (EMD Millipore), 400 ng/ml hydrocortisone (Sigma), and […] insulin (Sigma). On receipt, each cell line was expanded, cryopreserved as low passage stocks, and routinely tested for mycoplasma. Cisplatin (Enzo Biosciences), paclitaxel (Sigma), and MMAE (Concortis) were reconstituted in DMSO. Clinical-grade CDX3379 was provided by Celldex. Clinical grade cetuximab (Erbitux, Lilly Medical) was obtained from UCSD Moores Cancer Center Pharmacy.
(§2) Cells were plated in 96-well plates and exposed to a drug concentration range for 72 h. Alamar Blue was added to the cells and allowed to incubate for 2–4 h at 37 °C. Plates were analyzed using a plate reader with fluorescence measured at 560 nm. Fractional survival was normalized to untreated control cell fluorescent values. Drug IC50 was calculated using Prism software (GraphPad, La Jolla, CA). Cell viability, cytotoxicity and apoptosis were also measured by ApoTox-Glo Triplex Assay (Promega).
For orientation: The colour change of resazurin is a common sign of viable cells or microbes.

Data set [4] has as its system 4MOSC1. Description: Cytotoxicity, Alamar Blue assay. The class given is cell-based, murine. Here is the method: as §1, §2
In data set [5] the test system is LL2. Briefly: Cytotoxicity, Alamar Blue assay. The class given is cell-based, murine. As to the method:
as §1, §2

For data set [6], the system named is B16. Briefly: Cytotoxicity, Alamar Blue assay. The class given is cell-based, murine. Here is the method:
as §1, §2

In data set [7] the test system is Detroit 562. Briefly: Cytotoxicity, Alamar Blue assay. The format is cell-based, human. As to the method:
as §1, §2

In data set [8] the test system is CAL27. Briefly: Cytotoxicity, Alamar Blue assay. The format is cell-based, human. Here is the method:
as §1, §2

The subject of data set [9] is A549. Description: Cytotoxicity, Alamar Blue assay. The format is cell-based, human. The conditions noted are these: 72 h drug exposure, one value per biological replicate. As to the method: as §2
The subject of data set [10] is HCT116. Briefly: Cytotoxicity, Alamar Blue assay. The conditions noted are these: 72 h drug exposure, one value per biological replicate. The class given is cell-based, human. Here is the method: as §2
For data set [11], the system named is MOC1. Briefly: Cytotoxicity, Alamar Blue assay. The class given is cell-based, murine. As to the method: as §1, with “Clinical-grade CDX3379 was provided by Celldex.” left out
as §2
(§3) measured by Alamar Blue assay. For Alamar Blue assay cytotoxicity, we measured cell viability at 72 hr of […]

For data set [12], the system named is MOC2. Description: Cytotoxicity, Alamar Blue assay. The class given is cell-based, murine. Here is the method:
as §1, with “Clinical-grade CDX3379 was provided by Celldex.” left out
as §2, §3

The subject of data set [13] is B16 tumors. Briefly: Subcutaneous tumor therapy, CDX3379-MMAE or CDX3379-MMAF with IR, mouse survival. The class given is in vivo, C57BL/6 mice.
Protocol: MOC1, B16, LL/2, and MC38 tumor cells were injected subcutaneously into the hindlimbs of 6-week-old female C57BL/6 albino mice in 100 µl of 1:1 Matrigel (BD) and PBS solution. Fractionated IR was delivered focally to the tumor-bearing hindlimbs (3 Gy to MC38 tumors and 5 Gy to LL/2 and B16 tumors) as indicated in figure legends using a PXI X-RAD 225 XL irradiator at maximal dose rate of 3 Gy/min with a beam-conditioning aluminum filter (Precision X-ray Irradiation). For RAG1 KO studies, 6-week-old female Rag1^tm1Mom mice were injected subcutaneously with tumor cells in their hindlimbs (Jackson Labs). For CD8 depletion studies, mice were i.p. injected with anti-CD8 (BioXCell #BE0117) at 10 mg/kg on days −6, −5 and −4 tumor cell implant and then weekly starting on day after tumor cells were injected or control antibody. […] Tumor volumes were measured and calculated using the formula as ½ * length * width^2. Mice were sacrificed when tumor volume reached >1500 mm^3, maximal tumor volume approved on our protocol for subcutaneous tumors.

Turning to `CC[C@H](C)[C@@H]([C@@H](CC(=O)N1CCC[C@H]1[C@H](OC)[C@@H](C)C(=O)N[C@@H](Cc1ccccc1)C(=O)O)OC)N(C)C(=O)[C@@H](NC(=O)[C@@H](NC)C(C)C)C(C)C` [MMAF, monomethyl auristatin F] (H-[NMeV]V[Dil][Dolaproine]F-OH), the “cell permeability as free drug” value in data set [1] is recorded as “reduced cell permeability compared to MMAE”.
With “Enapotamab vedotin: AXL-targeted ADC conjugate with an MMAE warhead”, the “survival and tumor control” value in data set [2] is “prolonged mouse survival; also recorded: failed to generate durable tumor control”.
For the molecule `N.N.[Cl][Pt][Cl]` [Cisplatin], the half-maximal inhibitory concentration (IC50) is 3640 nM and 3830 nM in data set [3] (MC38, 72 h drug exposure, one value per biological replicate, read-out: IC50 values); 1370 nM and 1460 nM in data set [4] (4MOSC1, 72 h drug exposure, one value per biological replicate, read-out: IC50 values); 1080 nM and 745 nM in data set [5] (LL2, 72 h drug exposure, one value per biological replicate, read-out: IC50 values); 3770 nM and 4490 nM in data set [6] (B16, 72 h drug exposure, one value per biological replicate, read-out: IC50 values); 11500 nM and 9550 nM and 10400 nM and 11800 nM in data set [7] (Detroit 562, 72 h drug exposure, one value per biological replicate, read-out: IC50 values); 3650 nM and 3760 nM and 7310 nM and 8270 nM and 7270 nM and 6950 nM in data set [8] (72 h drug exposure, one value per biological replicate, read-out: IC50 values). Further, the IC50 in [9] was 22600 nM and 27200 nM and 13600 nM and 15400 nM; in data set [10] it was 42200 nM and 55500 nM; in data set [11] (MOC1; 72 h drug exposure, Alamar Blue; one value per biological replicate; read-out: IC50 values) it was 13700 nM and 15300 nM and 10400 nM and 10700 nM; in data set [12] (MOC2, 72 h drug exposure, one value per biological replicate, read-out: IC50 values) it was 8750 nM and 9990 nM.
Turning to `CC(=O)O[C@H]1C(=O)[C@@]2(C)[C@H]([C@H](OC(=O)c3ccccc3)[C@]3(O)C[C@H](OC(=O)[C@H](O)[C@@H](NC(=O)c4ccccc4)c4ccccc4)C(C)=C1C3(C)C)[C@]1(OC(C)=O)CO[C@@H]1C[C@@H]2O` [Paclitaxel], the IC50 was 67 nM in data set [3] (Mus musculus, MC-38, 72 h, read-out: IC50 values, MC38, 72 h drug exposure, one value per biological replicate); 75.7 nM in [3] (read-out: IC50 values, MC38, 72 h drug exposure, one value per biological replicate); 7.65 nM in [4] (Mus musculus, 72 h, read-out: IC50 values, 4MOSC1, 72 h drug exposure, one value per biological replicate); 12.9 nM in data set [4] (read-out: IC50 values, 4MOSC1, 72 h drug exposure, one value per biological replicate); 15.3 nM in data set [5] (Mus musculus, LL/2, 72 h, read-out: IC50 values, LL2, 72 h drug exposure, one value per biological replicate); 16.6 nM in data set [5] (read-out: IC50 values, LL2, 72 h drug exposure, one value per biological replicate). Further, the IC50 in data set [6] (Mus musculus, B16, 72 h, read-out: IC50 values, B16, 72 h drug exposure, one value per biological replicate) is 6.1 nM; in data set [6] (read-out: IC50 values, B16, 72 h drug exposure, one value per biological replicate) it was 7.8 nM; in data set [7] (Homo sapiens, Detroit 562, 72 h, read-out: IC50 values, Detroit 562, 72 h drug exposure, one value per biological replicate) it was 5.71 nM; in [7] (read-out: IC50 values, Detroit 562, 72 h drug exposure, one value per biological replicate) it was 5.94 nM and 3.87 nM and 4.75 nM; in data set [8] (read-out: IC50 values, 72 h drug exposure, one value per biological replicate), 1.4 nM and 1.52 nM and 3.46 nM and 4.62 nM and 3.12 nM and 3.36 nM; in data set [9], 23.3 nM and 15.1 nM. The IC50 is 16.6 nM in data set [9] (Homo sapiens, A549, 72 h); 2.04 nM and 8.38 nM and 12.4 nM and 9.33 nM in data set [10]; 45.4 nM and 54.2 nM and 26.8 nM and 24.6 nM in data set [11] (read-out: IC50 values; MOC1; 72 h drug exposure, Alamar Blue; one value per biological replicate); 43.5 nM in data set [12] (Mus musculus, 72 h, read-out: IC50 values, MOC2, 72 h drug exposure, one value per biological replicate); 56.4 nM in data set [12] (read-out: IC50 values, MOC2, 72 h drug exposure, one value per biological replicate).

B1: CDX3379-MMAF: anti-HER3 antibody CDX3379 conjugated to MMAF via MC-VC-PABC linker (conjugate, chains of the INN, looked up)
VH: EVQLLESGGGLVQPGGSLRLSCAASGFTFSSYAMSWVRQAPGKGLEWVSAINSQGKSTYYADSVKGRFTISRDNSKNTLYLQMNSLRAEDTAVYYCARWGDEGFDIWGQGTLVTVSS
VL: DIQMTQSPSSLSASVGDRVTITCRASQGISNWLAWYQQKPGKAPKLLIYGASSLQSGVPSRFSGSGSGTDFTLTISSLQPEDFATYYCQQYSSFPTTFGQGTKVEIK
modifications: MMAF via MC-VC-PABC linker
Turning to B1, the “tumor control and survival, + IR” value in data set [13] (B16, 2.5 nmoles ADC x 2 doses + IR 5 Gy x 3) was “CDX3379-MMAE proved to be superior to CDX3379-MMAF”. Besides, the “Mouse survival, status” value in data set [13] (with IR, individual mice, status at the day, Figure 3h) is reported as 1.

By IC50 is commonly meant the midpoint of a concentration-inhibition curve.

These data come from paper PMC9256669, “Monomethyl auristatin antibody and peptide drug conjugates for trimodal cancer chemo-radio-immunotherapy” (Nature Communications, 2022).
